In US10039761B2, “Co-crystals and pharmaceutical compositions comprising the same” (Vertex Pharmaceuticals Incorporated, priority 2013, dated 2018):
Entries after “also recorded” stand apart in the source; their conditions may differ.

Assays:
[1] = test system: A549; assay: Combination with etoposide, viability (Bliss analysis); assay type: cell-based; conditions: Compound (2) with etoposide; n = 1
Description: (§1) The cell-based experiments and assays were performed with either molecule but not always with both. Compounds (1) and (2) were generally very similar in those assays and experiments. Analysis of the combination experiments was performed using two methods: the Bliss Additivity model and the Mixtures Blend method to determine the degree of synergy, additivity, or antagonism. In the Bliss method, a matrix of Bliss scores was generated for each cell line and treatment, and a sum of the Bliss values over the range of combination concentrations tested was calculated. […] Larger average Bliss values indicate greater confidence in reporting synergy, and smaller scores indicate greater confidence in reporting antagonism. In the Mixtures Blend method combinants were added in a range of optimal ratios using design of experiment (DOE) software (DX-8 from STAT-EASE); the cells were irradiated with 2 Gy as required. Synergy was determined using statistical analysis of the data (ANOVA) to indicate linear (additivity) or statistically significant (p<0.1) non-linear (antagonism or synergy) mixes of the combinants.

[2] = test system: ESO26; assay: as above; assay type: cell-based; conditions: Compound (2) with etoposide; n = 3
Description: as §1

[3] = Blood exposure in ST-02-0004 study; assay type: in vivo
Description: The anti-tumor activity of Compound (2) in combination with focused-beam IR and the standard of care agents, paclitaxel and carboplatin, was also evaluated in the ST 02 0004 model. Treatment with paclitaxel, carboplatin, and IR was administered once per week for three weeks alone or in combination with Compound (2). […] Further, the 50 and 25 mg/kg Compound (2), paclitaxel/carboplatin, IR combination groups were statistically different (P<0.05) from the paclitaxel/carboplatin, paclitaxel/carboplatin/50 mg/kg Compound (2), and paclitaxel/carboplatin/IR groups. Compound (2) blood exposures were 9.3 and 27 μg*h/mL for the 25 and 50 mg/kg Compound (2) bid groups, respectively.

[4] = test system: HFL1; assay: Combination with etoposide, viability (Bliss analysis); assay type: cell-based, human; conditions: Compound (2) with etoposide; n = 3
Description: as §1

[5] = test system: ESO26 (GEJ) cancer cell line; assay: Combination with genotoxic agents, viability (Mixtures analysis); assay type: cell-based; conditions: single agent IC50 on which the mixtures were based
Description: as §1

[6] = test system: H460; assay: Combination with genotoxic agents, cell viability (Mixtures Blend); assay type: cell-based; design: key to Synergy or Antagonism, Plus Radiation (2 Gy): Plus = enhanced effect of radiation; *: Viability reduction driven predominantly by Compound (1) plus radiation; conditions: no agent ticked
Description: (§2) The cell-based experiments and assays were performed with either molecule but not always with both. Compounds (1) and (2) were generally very similar in those assays and experiments. Analysis of the combination experiments was performed using two methods: the Bliss Additivity model and the Mixtures Blend method to determine the degree of synergy, additivity, or antagonism. In the Bliss method, a matrix of Bliss scores was generated for each cell line and treatment, and a sum of the Bliss values over the range of combination concentrations tested was calculated. […] Larger average Bliss values indicate greater confidence in reporting synergy, and smaller scores indicate greater confidence in reporting antagonism. In the Mixtures Blend method combinants were added in a range of optimal ratios using design of experiment (DOE) software (DX-8 from STAT-EASE); the cells were irradiated with 2 Gy as required. Synergy was determined using statistical analysis of the data (ANOVA) to indicate linear (additivity) or statistically significant (p<0.1) non-linear (antagonism or synergy) mixes of the combinants. The following SOC agents were tested in double combinations with Compound (1): etoposide (a topoisomerase inhibitor that induces DSBs), cisplatin (DNA cross-linker), carboplatin (DNA cross-linker), fluorouracil (5-FU, antimetabolite that inhibits thymidylate synthase), paclitaxel (mitotic inhibitor that binds to tubulin), cetuximab (EGFR monoclonal antibody), and radiation. […] These findings were confirmed using the Bliss Additivity model (Table 21). […] While there is not total agreement in the various lines tested, (as detailed in the other sections) the majority agree and the conclusions arrived at are common to each. […] The cancer cell lines in Table 19 indicate: ESO26-gastroesophageal junction cancer, OE19-gastroesophageal junction cancer, […]549-lung cancer, colo205-colon cancer, H460-lung cancer, H2009-lung cancer, FaDu-pharynx cancer, Miapaca2-pancreatic cancer, HFL1-human fetal lung fibroblast.

[7] = test system: FaDu; assay: as above; assay type: cell-based; design: key to Synergy or Antagonism, Plus Radiation (2 Gy): Plus = enhanced effect of radiation; *: Viability reduction driven predominantly by Compound (1) plus radiation
Description: as §2

[8] = test system: A549; assay: as above; assay type: cell-based; design: key to Synergy or Antagonism, Plus Radiation (2 Gy): Plus = enhanced effect of radiation; *: Viability reduction driven predominantly by Compound (1) plus radiation
Description: as §2

[9] = test system: H2009; assay: as above; assay type: cell-based; design: key to Synergy or Antagonism, Plus Radiation (2 Gy): Plus = enhanced effect of radiation; *: Viability reduction driven predominantly by Compound (1) plus radiation; conditions: no agent ticked
Description: as §2

[10] = test system: OE-19 GEJ cell line xenograft; assay: OE-19 GEJ cell line xenograft efficacy with whole body IR; assay type: in vivo
Description: The in vivo efficacies of Compounds (1) and (2) in combination with whole body IR were examined in the OD26749 primary NSCLC (non-small cell lung cancer) and the OE-19 GEJ cell line xenograft models. In these studies, Compounds (1) and (2) were formulated with 16% captisol/1% PVP/1% HPMC E5 pH2.
The OE-19 cell line xenograft model was used to evaluate the efficacy of Compounds (1) and (2) alone and in combination with IR. Two cycles of treatment were administered (Day 0 and Day 7) as performed in the OD26749 model above.
In Tables 14 and 15, for example, PO bid (0, 4 h) indicates Compound (2) is administered twice (bid) at time point 0 and then 4 hours after; IR (0.25 h) qdx3 indicates radiation is administered 15 minutes (0.25 h) after the administration of Compound (2) (0 h), and once a day for 3 days (qdx3); q7dx2 indicates once a week for two weeks; qod indicates every other day twice (e.g., Day 1 and Day 3); and paclitaxel q7dx3 (−0.25 h), carboplatin q7dx3 (−0.25 h) indicates administration of paclitaxel and carboplatin 15 minutes prior to the administration of Compound (2), followed by additional administration of Compound (2) after 4 hours after the first administration of Compound (2).

SMILES: [2H]c1nc(C)nc([2H])c1-c1cc(NC[C@@H](C)c2cccc3c(C(=O)NC)ccnc23)ncn1 [Compound (2), (S)-N-methyl-8-(1-((2′-methyl-4′,6′-dideutero-[4,5′-bipyrimidin]-6-yl)amino)propan-2-yl)quinoline-4-carboxamide]
- Average Bliss score [1]: 27.3 (n = 1)
- Average Bliss score [2]: 43.2 ± 6.5 (n = 3)
- blood exposure ([3]; 25 mg/kg Compound (2) bid group): 9300 ng·h/mL
- blood exposure ([3]; 50 mg/kg Compound (2) bid group): 27000 ng·h/mL
- Average Bliss score [4]: 8.7 ± 5.6 (n = 3)
- IC50 [5]: 20 µM

SMILES: CNC(=O)c1ccnc2c([C@H](C)CNc3cc(-c4cnc(C)nc4)ncn3)cccc12 [Compound (1), (S)-N-methyl-8-(1-((2′-methyl-[4,5′-bipyrimidin]-6-yl)amino)propan-2-yl)quinoline-4-carboxamide]
- Synergy or Antagonism, No Radiation [6]: Synergy
- Synergy or Antagonism, Plus Radiation (2 Gy) [6]: Plus
- Synergy or Antagonism, No Radiation ([7]; no agent ticked): Synergy
- Synergy or Antagonism, Plus Radiation (2 Gy) ([7]; no agent ticked): Plus
- Synergy or Antagonism, No Radiation ([7]; with Cetuximab): Additivity
- Synergy or Antagonism, Plus Radiation (2 Gy) ([7]; with Cetuximab): Additivity, Plus
- Synergy or Antagonism, No Radiation ([8]; no agent ticked): Synergy
- Synergy or Antagonism, Plus Radiation (2 Gy) ([8]; no agent ticked): Plus
- Synergy or Antagonism, No Radiation ([8]; with Cetuximab): Additivity
- Synergy or Antagonism, Plus Radiation (2 Gy) ([8]; with Cetuximab): Additivity, Plus
- Synergy or Antagonism, No Radiation ([8]; with Cisplatin): Additivity
- Synergy or Antagonism, No Radiation ([8]; with Cisplatin and Etoposide): Strong Synergy
- Synergy or Antagonism, Plus Radiation (2 Gy) ([8]; with Cisplatin and Etoposide): Strong Synergy, Plus
- Synergy or Antagonism, No Radiation ([8]; with Cisplatin and Paclitaxel): additive; also recorded: Additivity
- Synergy or Antagonism, Plus Radiation (2 Gy) ([8]; with Cisplatin and Paclitaxel): Synergy, Plus
- Synergy or Antagonism, No Radiation ([8]; with Etoposide): Strong Synergy
- Synergy or Antagonism, No Radiation ([8]; with Paclitaxel): Antagonism
- Synergy or Antagonism, No Radiation [9]: Additivity
- Synergy or Antagonism, Plus Radiation (2 Gy) [9]: Plus
- tumor growth ([10]; Compound (1) in combination with 2 Gy whole body IR): significantly inhibited tumor growth
- % T/C (Day 18) ([10]; PO 100 mg/kg bid (0, 4 h) qd7x2, 2 Gy IR qd7x2 ([…]) whole body): 24.0%
- % T/C (Day 18) ([10]; PO 100 mg/kg bid (0, 4 h) qd7x 2, no IR): 79.0%
